Results taken from patent publication US20230266302A1, “SYNTHESIS AND USE OF N-BENZYL SULFONAMIDES” (THE UNIVERSITY OF TULSA, priority 2020, published 2023).

How the values were obtained:
Assay in all cases: ATP level assay (CellTiter-Glo), percent of control
Assay type in all cases: cell-based
MCF7 (breast cancer) = settings: two hour incubation; for activity at 100 µM: Homo sapiens, MCF7, 2 h, compound alone, control DMSO, read-out: POC (percent of control) MCF7
PC3 (prostate cancer) = settings: two hour incubation; for activity at 100 µM: 2 h, compound alone, control DMSO, read-out: POC (percent of control) PC3
SkBr3 (breast cancer) = settings: two hour incubation; for activity at 100 µM: Homo sapiens, SK-BR-3, 2 h, compound alone, control DMSO, read-out: POC (percent of control) SkBr3
HDF (normal cells) = settings: two hour incubation; for activity at 100 µM: 2 h, compound alone, control DMSO, read-out: POC (percent of control) HDF
[1] = test system: BxPC3 (pancreatic cancer); settings: two hour incubation; for activity at 100 µM: Homo sapiens, BXPC-3, 2 h, compound alone, control DMSO, read-out: POC (percent of control) BxPC3
T47D (breast cancer) = settings: two hour incubation; for activity at 100 µM: Homo sapiens, T47D, 2 h, compound alone, control DMSO, read-out: POC (percent of control) T47D
HeLa (cervical cancer) = settings: two hour incubation; for activity at 100 µM: Homo sapiens, HeLa, 2 h, compound alone, control DMSO, read-out: POC (percent of control) HeLa
[2] = test system: MCF10A (non-cancerous breast); settings: two hour incubation; for activity at 100 µM: Homo sapiens, MCF-10A, 2 h, compound alone, control DMSO, read-out: POC (percent of control) MCF10A
H293 (kidney cancer) = settings: two hour incubation; for activity at 100 µM: 2 h, compound alone, control DMSO, read-out: POC (percent of control) H293
NCI-H196 (lung cancer) = settings: two hour incubation; for activity at 100 µM: NCI-H196, 2 h, compound alone, control DMSO, read-out: POC (percent of control) NCI-H196
MDA-MB (breast cancer) = settings: two hour incubation; for activity at 100 µM: 2 h, compound alone, control DMSO, read-out: POC (percent of control) MDA-MB
[3] = compound 100 uM + 2DG (about 10-20 mM)
[4] = compound 100 uM + rotenone (approximately 1.25 μM)

SMILES | activity at 100 µM (MCF7 (breast cancer)) [%] | POC (percent of control) MCF7 (MCF7 (breast cancer); [3]) | POC (percent of control) MCF7 (MCF7 (breast cancer); [4]) | activity at 100 µM (PC3 (prostate cancer)) [%] | POC (percent of control) PC3 (PC3 (prostate cancer); [3]) | POC (percent of control) PC3 (PC3 (prostate cancer); [4]) | activity at 100 µM (SkBr3 (breast cancer)) [%] | POC (percent of control) SkBr3 (SkBr3 (breast cancer); [3]) | POC (percent of control) SkBr3 (SkBr3 (breast cancer); [4]) | activity at 100 µM (HDF (normal cells)) [%] | POC (percent of control) HDF (HDF (normal cells); [3]) | POC (percent of control) HDF (HDF (normal cells); [4]) | activity at 100 µM [1] [%] | POC (percent of control) BxPC3 [1, 3] | POC (percent of control) BxPC3 [1, 4] | activity at 100 µM (T47D (breast cancer)) [%] | POC (percent of control) T47D (T47D (breast cancer); [3]) | POC (percent of control) T47D (T47D (breast cancer); [4]) | activity at 100 µM (HeLa (cervical cancer)) [%] | POC (percent of control) HeLa (HeLa (cervical cancer); [3]) | further results
Cn1cc(CNS(=O)(=O)c2ccc(Cl)cc2)c2ccccc21 [Compound 29, 4-chloro-N-[(1-methyl-1H-indol-3-yl)methyl]benzenesulfonamide] | 105 | 90.9% of control | 98% of control | 77.8 | 67.5% of control | 67% of control | 102 | 72.5% of control | 78.6% of control | 95.8 | 73% of control | 81.5% of control | 80.8 | 51.7% of control | 52.7% of control | 90 | 60.7% of control | 77.6% of control | 80.9 | 83.9% of control | POC (percent of control) HeLa (HeLa (cervical cancer); [4]): 93.1% of control; activity at 100 µM [2]: 78.9%; POC (percent of control) MCF10A [2, 3]: 46.2% of control; POC (percent of control) MCF10A [2, 4]: 62.7% of control; activity at 100 µM (H293 (kidney cancer)): 91.2%; POC (percent of control) H293 (H293 (kidney cancer); [3]): 55% of control; POC (percent of control) H293 (H293 (kidney cancer); [4]): 50.5% of control; activity at 100 µM (NCI-H196 (lung cancer)): 192%; POC (percent of control) NCI-H196 (NCI-H196 (lung cancer); [3]): 51.3% of control; POC (percent of control) NCI-H196 (NCI-H196 (lung cancer); [4]): 100.3% of control; activity at 100 µM (MDA-MB (breast cancer)): 81.1%; POC (percent of control) MDA-MB (MDA-MB (breast cancer); [3]): 64.7% of control; POC (percent of control) MDA-MB (MDA-MB (breast cancer); [4]): 69.7% of control
Cc1ccc(S(=O)(=O)NCc2cscn2)cc1 [Compound 17, 4-methyl-N-(1,3-thiazol-4-ylmethyl)benzenesulfonamide] | 145 | 114.6% of control | 90.6% of control | 113 | 93.7% of control | 90.9% of control | 90.1 | 88.8% of control | 95.4% of control | 90.7 | 98% of control | 84.1% of control | 91.4 | 101.4% of control | 75.7% of control | 83 | 89.1% of control | 104.6% of control | 90.3 | 118.8% of control | POC (percent of control) HeLa (HeLa (cervical cancer); [4]): 110.3% of control; activity at 100 µM [2]: 92.4%; POC (percent of control) MCF10A [2, 3]: 97.1% of control; POC (percent of control) MCF10A [2, 4]: 91.6% of control; activity at 100 µM (H293 (kidney cancer)): 80.4%; POC (percent of control) H293 (H293 (kidney cancer); [3]): 85.8% of control; POC (percent of control) H293 (H293 (kidney cancer); [4]): 74.9% of control; activity at 100 µM (NCI-H196 (lung cancer)): 96.8%; POC (percent of control) NCI-H196 (NCI-H196 (lung cancer); [3]): 103.8% of control; POC (percent of control) NCI-H196 (NCI-H196 (lung cancer); [4]): 89.4% of control; activity at 100 µM (MDA-MB (breast cancer)): 105%; POC (percent of control) MDA-MB (MDA-MB (breast cancer); [3]): 89.8% of control; POC (percent of control) MDA-MB (MDA-MB (breast cancer); [4]): 98.1% of control
O=S(=O)(NCc1c[nH]c2cccc(Br)c12)c1ccc(Cl)cc1 [Compound 27, N-[(4-bromo-1H-indol-3-yl)methyl]-4-chlorobenzenesulfonamide] | 82.9 | 50.2% of control | 61.1% of control | 43.1 | 15.2% of control | 27.2% of control | 95.6 | 62.4% of control | 66% of control | 65 | 38% of control | 66.6% of control | 42.8 | 14.2% of control | 15.8% of control | 33.9 | 103.1% of control | 103.8% of control | 58.3 | 104.3% of control | POC (percent of control) HeLa (HeLa (cervical cancer); [4]): 73.3% of control; activity at 100 µM [2]: 58.9%; POC (percent of control) MCF10A [2, 3]: 27.1% of control; POC (percent of control) MCF10A [2, 4]: 30.2% of control; activity at 100 µM (H293 (kidney cancer)): 67%; POC (percent of control) H293 (H293 (kidney cancer); [3]): 30.4% of control; POC (percent of control) H293 (H293 (kidney cancer); [4]): 27.3% of control; activity at 100 µM (NCI-H196 (lung cancer)): 150%; POC (percent of control) NCI-H196 (NCI-H196 (lung cancer); [3]): 117.2% of control; POC (percent of control) NCI-H196 (NCI-H196 (lung cancer); [4]): 16.7% of control; activity at 100 µM (MDA-MB (breast cancer)): 62.6%; POC (percent of control) MDA-MB (MDA-MB (breast cancer); [3]): 27.3% of control; POC (percent of control) MDA-MB (MDA-MB (breast cancer); [4]): 37.3% of control
